Blank lines part the entries; values can stand above or below the compound they belong to.
Assays:
Experiment in all cases: KINOMEscan competition binding
Details in all cases: compound 10.0 µM
[1] = target: DAPK1 (human) (UniProt P53355)
[2] = target: DAPK2 (human) (UniProt Q9UIK4)
[3] = target: DAPK3 (human) (UniProt O43293)
[4] = target: PIK3CB (human) (UniProt P42338)
[5] = target: PIM2 (human) (UniProt Q9P1W9)
[6] = target: PIM3 (human) (UniProt Q86V86)
[7] = target: RPS6KA4 KD2 (human) (UniProt O75676)
[8] = target: STK17B (human) (UniProt O94768)
[9] = target: TYK2 JH2 pseudokinase (human) (UniProt P29597)
[10] = target: ZAP70 (human) (UniProt P43403)
[11] = target: AAK1 (human) (UniProt Q2M2I8)
[12] = target: ACVR2A (human) (UniProt P27037)
[13] = target: ACVR2B (human) (UniProt Q13705)
[14] = target: BMP2K (human) (UniProt Q9NSY1)
[15] = target: BMPR1B (human) (UniProt O00238)
[16] = target: CDK7 (human) (UniProt P50613)
[17] = target: CHUK (human) (UniProt O15111)
[18] = target: CLK1 (human) (UniProt P49759)
[19] = target: CLK2 (human) (UniProt P49760)
[20] = target: CLK3 (human) (UniProt P49761)
[21] = target: CLK4 (human) (UniProt Q9HAZ1)
[22] = target: CSNK2A1 (human) (UniProt P68400)
[23] = target: CSNK2A2 (human) (UniProt P19784)
[24] = target: DYRK1B (human) (UniProt Q9Y463)
[25] = target: HIPK1 (human) (UniProt Q86Z02)
[26] = target: MAP2K3 (human) (UniProt P46734)
[27] = target: MAP2K4 (human) (UniProt P45985)
[28] = target: MAPK15 (human) (UniProt Q8TD08)
[29] = target: MINK1 (human) (UniProt Q8N4C8)
[30] = target: NEK2 (human) (UniProt P51955)
[31] = target: PIM1 (human) (UniProt P11309)
[32] = target: PIP4K2B (human) (UniProt P78356)
[33] = target: PLK4 (human) (UniProt O00444)
[34] = target: RIOK1 (human) (UniProt Q9BRS2)
[35] = target: RIOK3 (human) (UniProt O14730)
[36] = target: RPS6KA5 KD2 (human) (UniProt O75582)
[37] = target: SRPK3 (human) (UniProt Q9UPE1)
[38] = target: STK17A (human) (UniProt Q9UEE5)
[39] = target: TAOK1 (human) (UniProt Q7L7X3)
[40] = target: TAOK3 (human) (UniProt Q9H2K8)
[41] = target: ALK (human) (UniProt Q9UM73)
[42] = target: CAMKK2 (human) (UniProt Q96RR4)
[43] = target: DCLK1 (human) (UniProt O15075)
[44] = target: DCLK2 (human) (UniProt Q8N568)
[45] = target: FER (human) (UniProt P16591)
[46] = target: GAK (human) (UniProt O14976)
[47] = target: INSRR (human) (UniProt P14616)
[48] = target: MYLK (human) (UniProt Q15746)
[49] = target: PLK1 (human) (UniProt P53350)
[50] = target: PLK3 (human) (UniProt Q9H4B4)
[51] = target: PRKD1 (human) (UniProt Q15139)
[52] = target: PRKD2 (human) (UniProt Q9BZL6)
[53] = target: PRKD3 (human) (UniProt O94806)
[54] = target: PTK2 (human) (UniProt Q05397)
[55] = target: PTK2B (human) (UniProt Q14289)
[56] = target: RPS6KA2 KD2 (human) (UniProt Q15349)
[57] = target: RPS6KA6 KD2 (human) (UniProt Q9UK32)
[58] = target: SLK (human) (UniProt Q9H2G2)
[59] = target: STK33 (human) (UniProt Q9BYT3)
[60] = target: TTK (human) (UniProt P33981)
[61] = target: ULK1 (human) (UniProt O75385)
[62] = target: ULK2 (human) (UniProt Q8IYT8)
[63] = test system: EGFR (human), P00533 [747-751 del / S ins]
[64] = test system: EGFR (human), P00533 [752-759 del]
[65] = test system: EGFR (human), P00533 [A750P; 747-749 del]
[66] = test system: EGFR (human), P00533 [G719C; 746-750 del]
[67] = test system: EGFR (human), P00533 [L858R]
[68] = test system: EGFR (human), P00533 [L861Q]
[69] = test system: EGFR (human), P00533 [P753S; 747-752 del]
[70] = target: RPS6KA1 KD2 (human) (UniProt Q15418)

Chain of PTK2 (human) (Q05397 whole entry, looked up): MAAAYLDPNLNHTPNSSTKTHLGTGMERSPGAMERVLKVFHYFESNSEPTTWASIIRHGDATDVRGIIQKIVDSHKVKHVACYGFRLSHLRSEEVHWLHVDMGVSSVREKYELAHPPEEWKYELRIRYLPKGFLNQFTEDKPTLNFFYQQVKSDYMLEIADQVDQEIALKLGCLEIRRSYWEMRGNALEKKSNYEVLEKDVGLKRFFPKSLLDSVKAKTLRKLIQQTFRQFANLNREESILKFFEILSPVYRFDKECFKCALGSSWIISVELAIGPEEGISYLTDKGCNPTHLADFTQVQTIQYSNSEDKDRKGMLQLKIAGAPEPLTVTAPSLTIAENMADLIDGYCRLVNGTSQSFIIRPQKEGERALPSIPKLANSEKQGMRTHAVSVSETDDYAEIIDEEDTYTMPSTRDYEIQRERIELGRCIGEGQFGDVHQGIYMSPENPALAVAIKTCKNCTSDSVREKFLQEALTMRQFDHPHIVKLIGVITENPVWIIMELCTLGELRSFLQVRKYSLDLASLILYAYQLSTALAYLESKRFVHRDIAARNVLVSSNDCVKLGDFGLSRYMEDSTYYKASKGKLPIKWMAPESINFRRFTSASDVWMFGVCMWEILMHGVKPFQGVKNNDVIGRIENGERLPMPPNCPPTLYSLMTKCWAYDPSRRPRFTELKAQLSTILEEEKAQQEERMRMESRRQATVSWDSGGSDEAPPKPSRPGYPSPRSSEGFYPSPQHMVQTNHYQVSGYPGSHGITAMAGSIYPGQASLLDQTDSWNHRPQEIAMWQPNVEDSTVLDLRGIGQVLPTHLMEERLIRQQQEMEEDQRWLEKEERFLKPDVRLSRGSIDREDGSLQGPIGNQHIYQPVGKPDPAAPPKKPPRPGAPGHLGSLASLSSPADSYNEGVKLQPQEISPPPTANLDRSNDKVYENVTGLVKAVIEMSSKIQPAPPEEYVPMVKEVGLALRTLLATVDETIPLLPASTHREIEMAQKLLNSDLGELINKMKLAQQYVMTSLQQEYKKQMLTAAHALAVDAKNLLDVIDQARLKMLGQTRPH
Chain of PLK3 (human) (Q9H4B4 whole entry, looked up): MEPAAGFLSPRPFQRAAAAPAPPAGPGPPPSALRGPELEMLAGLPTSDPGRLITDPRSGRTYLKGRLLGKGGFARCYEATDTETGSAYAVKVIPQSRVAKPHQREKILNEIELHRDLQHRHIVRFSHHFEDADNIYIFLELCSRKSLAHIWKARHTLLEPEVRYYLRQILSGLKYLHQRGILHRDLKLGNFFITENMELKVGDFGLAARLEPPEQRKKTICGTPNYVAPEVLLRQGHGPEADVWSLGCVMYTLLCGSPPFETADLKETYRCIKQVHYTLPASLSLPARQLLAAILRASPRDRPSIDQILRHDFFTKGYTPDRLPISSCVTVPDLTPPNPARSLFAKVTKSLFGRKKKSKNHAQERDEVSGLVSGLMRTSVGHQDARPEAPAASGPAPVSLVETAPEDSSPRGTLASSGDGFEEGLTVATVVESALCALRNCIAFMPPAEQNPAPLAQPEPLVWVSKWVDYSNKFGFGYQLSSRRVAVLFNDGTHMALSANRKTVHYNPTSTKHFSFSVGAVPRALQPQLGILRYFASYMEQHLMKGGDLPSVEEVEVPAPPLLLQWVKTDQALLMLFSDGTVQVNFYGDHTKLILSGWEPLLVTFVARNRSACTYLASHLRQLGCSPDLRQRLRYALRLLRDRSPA
Chain of SLK (human) (Q9H2G2 whole entry, looked up): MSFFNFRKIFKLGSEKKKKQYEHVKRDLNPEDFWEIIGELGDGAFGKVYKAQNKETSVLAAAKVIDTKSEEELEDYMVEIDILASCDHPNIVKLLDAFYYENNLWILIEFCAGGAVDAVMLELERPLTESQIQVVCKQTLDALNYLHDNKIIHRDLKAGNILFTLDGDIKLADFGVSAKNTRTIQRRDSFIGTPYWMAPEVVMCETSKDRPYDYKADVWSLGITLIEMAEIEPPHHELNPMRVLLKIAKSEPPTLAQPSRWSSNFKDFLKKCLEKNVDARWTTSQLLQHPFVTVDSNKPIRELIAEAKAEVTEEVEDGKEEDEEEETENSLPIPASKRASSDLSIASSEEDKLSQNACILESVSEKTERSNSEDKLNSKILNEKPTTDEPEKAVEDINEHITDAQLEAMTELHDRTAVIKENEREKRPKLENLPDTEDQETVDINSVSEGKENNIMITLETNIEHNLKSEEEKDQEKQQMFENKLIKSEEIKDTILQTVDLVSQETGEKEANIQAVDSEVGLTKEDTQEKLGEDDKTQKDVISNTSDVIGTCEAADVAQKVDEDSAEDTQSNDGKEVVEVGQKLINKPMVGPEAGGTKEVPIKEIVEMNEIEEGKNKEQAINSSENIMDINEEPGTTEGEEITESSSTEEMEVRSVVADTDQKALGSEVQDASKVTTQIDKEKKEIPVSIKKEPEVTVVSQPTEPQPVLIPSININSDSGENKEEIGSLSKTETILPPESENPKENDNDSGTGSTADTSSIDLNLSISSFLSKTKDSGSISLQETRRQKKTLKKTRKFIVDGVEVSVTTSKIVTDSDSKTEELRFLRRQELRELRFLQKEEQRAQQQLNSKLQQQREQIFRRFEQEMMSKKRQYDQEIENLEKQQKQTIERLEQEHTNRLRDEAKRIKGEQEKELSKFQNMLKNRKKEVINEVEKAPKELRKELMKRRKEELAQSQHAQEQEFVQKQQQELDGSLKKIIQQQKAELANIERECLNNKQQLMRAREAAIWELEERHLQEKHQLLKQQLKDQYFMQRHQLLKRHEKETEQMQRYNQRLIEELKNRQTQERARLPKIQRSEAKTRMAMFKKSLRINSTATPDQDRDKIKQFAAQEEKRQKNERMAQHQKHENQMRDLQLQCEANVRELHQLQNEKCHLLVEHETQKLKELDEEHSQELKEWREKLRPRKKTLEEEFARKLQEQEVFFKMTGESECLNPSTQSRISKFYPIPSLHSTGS
Chain of PIM2 (human) (Q9P1W9 whole entry, looked up): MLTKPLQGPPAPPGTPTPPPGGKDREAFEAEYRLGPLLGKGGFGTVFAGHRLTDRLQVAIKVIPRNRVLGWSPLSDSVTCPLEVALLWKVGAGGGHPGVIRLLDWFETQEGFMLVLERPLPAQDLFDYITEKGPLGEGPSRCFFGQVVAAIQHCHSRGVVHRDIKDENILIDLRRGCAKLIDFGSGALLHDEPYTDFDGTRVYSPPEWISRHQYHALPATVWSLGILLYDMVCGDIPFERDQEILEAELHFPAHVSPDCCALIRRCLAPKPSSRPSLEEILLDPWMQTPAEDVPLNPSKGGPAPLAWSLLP
Chain of MINK1 (human) (Q8N4C8 whole entry, looked up): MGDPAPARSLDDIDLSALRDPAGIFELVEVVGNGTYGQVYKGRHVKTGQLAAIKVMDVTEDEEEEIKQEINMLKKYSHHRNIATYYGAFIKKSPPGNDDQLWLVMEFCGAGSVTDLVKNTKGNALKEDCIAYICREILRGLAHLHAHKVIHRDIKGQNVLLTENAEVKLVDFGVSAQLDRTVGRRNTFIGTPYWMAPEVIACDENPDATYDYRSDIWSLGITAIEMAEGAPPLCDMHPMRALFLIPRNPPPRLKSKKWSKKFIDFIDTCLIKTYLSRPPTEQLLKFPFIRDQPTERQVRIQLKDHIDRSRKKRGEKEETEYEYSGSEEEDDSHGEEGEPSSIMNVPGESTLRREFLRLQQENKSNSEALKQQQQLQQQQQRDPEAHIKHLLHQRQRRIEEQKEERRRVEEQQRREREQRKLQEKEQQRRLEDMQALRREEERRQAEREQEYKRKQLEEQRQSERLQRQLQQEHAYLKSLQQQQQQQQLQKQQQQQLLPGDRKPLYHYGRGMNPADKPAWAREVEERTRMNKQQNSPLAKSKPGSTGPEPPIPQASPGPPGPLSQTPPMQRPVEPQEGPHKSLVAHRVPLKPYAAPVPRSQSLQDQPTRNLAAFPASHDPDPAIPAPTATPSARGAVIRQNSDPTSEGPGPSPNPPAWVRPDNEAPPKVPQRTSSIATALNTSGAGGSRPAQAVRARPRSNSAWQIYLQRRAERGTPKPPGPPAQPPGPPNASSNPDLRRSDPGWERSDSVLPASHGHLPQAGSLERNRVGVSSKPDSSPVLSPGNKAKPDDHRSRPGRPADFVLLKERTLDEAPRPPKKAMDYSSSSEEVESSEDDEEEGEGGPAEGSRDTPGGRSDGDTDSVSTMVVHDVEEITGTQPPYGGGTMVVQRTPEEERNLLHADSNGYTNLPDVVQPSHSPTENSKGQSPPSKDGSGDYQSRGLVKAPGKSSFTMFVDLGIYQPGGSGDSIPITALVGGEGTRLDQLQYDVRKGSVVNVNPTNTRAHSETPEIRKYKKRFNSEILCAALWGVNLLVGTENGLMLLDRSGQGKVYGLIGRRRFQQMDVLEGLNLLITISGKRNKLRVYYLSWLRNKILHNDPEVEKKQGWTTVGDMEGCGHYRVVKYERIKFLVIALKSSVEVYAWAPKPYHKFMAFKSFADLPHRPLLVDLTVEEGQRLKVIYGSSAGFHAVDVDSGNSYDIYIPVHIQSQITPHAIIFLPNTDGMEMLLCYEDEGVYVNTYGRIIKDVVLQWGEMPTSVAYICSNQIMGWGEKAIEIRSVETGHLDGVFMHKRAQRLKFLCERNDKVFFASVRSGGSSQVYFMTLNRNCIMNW
Chain of STK33 (human) (Q9BYT3 whole entry, looked up): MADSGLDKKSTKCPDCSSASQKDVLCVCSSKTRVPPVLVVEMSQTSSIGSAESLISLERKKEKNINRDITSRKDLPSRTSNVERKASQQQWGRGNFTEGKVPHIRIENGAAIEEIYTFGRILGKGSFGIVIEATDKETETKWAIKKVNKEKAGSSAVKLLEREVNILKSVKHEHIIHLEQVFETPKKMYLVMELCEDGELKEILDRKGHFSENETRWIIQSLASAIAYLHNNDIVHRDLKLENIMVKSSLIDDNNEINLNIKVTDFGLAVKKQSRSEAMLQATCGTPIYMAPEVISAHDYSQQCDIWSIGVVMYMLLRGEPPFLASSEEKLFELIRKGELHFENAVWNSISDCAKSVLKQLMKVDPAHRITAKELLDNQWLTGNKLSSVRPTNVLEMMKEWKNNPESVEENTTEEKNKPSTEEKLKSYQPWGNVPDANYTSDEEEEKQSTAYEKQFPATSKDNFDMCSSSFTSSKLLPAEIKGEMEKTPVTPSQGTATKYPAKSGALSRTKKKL

- kinase still bound, per cent of control [1]: 4.4%
- kinase still bound, per cent of control [2]: 10%
- kinase still bound, per cent of control [3]: 10%
- kinase still bound, per cent of control [4]: 6.2%
- kinase still bound, per cent of control [5]: 14%
- kinase still bound, per cent of control [6]: 30%
- kinase still bound, per cent of control [7]: 3.2%
- kinase still bound, per cent of control [8]: 18%
- kinase still bound, per cent of control [9]: 14%
- kinase still bound, per cent of control [10]: 11%
Structure (SMILES): O=C1NC(=O)/C(=C/c2cc(-c3ccc(N4CCNCC4)nc3)c[nH]c2=O)S1

- kinase still bound, per cent of control [11]: 13%
- kinase still bound, per cent of control [12]: 25%
- kinase still bound, per cent of control [13]: 16%
- kinase still bound, per cent of control [14]: 13%
- kinase still bound, per cent of control [15]: 5.7%
- kinase still bound, per cent of control [16]: 26%
- kinase still bound, per cent of control [17]: 18%
- kinase still bound, per cent of control [18]: 16%
- kinase still bound, per cent of control [19]: 5.1%
- kinase still bound, per cent of control [20]: 3.5%
- kinase still bound, per cent of control [21]: 28%
- kinase still bound, per cent of control [22]: 26%
- kinase still bound, per cent of control [23]: 25%
- kinase still bound, per cent of control [1]: 12%
- kinase still bound, per cent of control [2]: 5.2%
- kinase still bound, per cent of control [3]: 9.4%
- kinase still bound, per cent of control [24]: 23%
- kinase still bound, per cent of control [25]: 16%
- kinase still bound, per cent of control [26]: 2.2%
- kinase still bound, per cent of control [27]: 24%
- kinase still bound, per cent of control [29]: 24%
- kinase still bound, per cent of control [30]: 30%
- kinase still bound, per cent of control [31]: 16%
- kinase still bound, per cent of control [5]: 4.8%
- kinase still bound, per cent of control [6]: 12%
- kinase still bound, per cent of control [32]: 22%
- kinase still bound, per cent of control [33]: 24%
- kinase still bound, per cent of control [34]: 31%
- kinase still bound, per cent of control [35]: 17%
- kinase still bound, per cent of control [7]: 0.9%
- kinase still bound, per cent of control [36]: 2.2%
- kinase still bound, per cent of control [37]: 33%
- kinase still bound, per cent of control [38]: 23%
- kinase still bound, per cent of control [8]: 28%
- kinase still bound, per cent of control [39]: 4.2%
- kinase still bound, per cent of control [40]: 22%
Structure (SMILES): N=C1NC(=O)/C(=C/c2c[nH]c(=O)c(-c3ccc(S(N)(=O)=O)cc3)c2)S1
- kinase still bound, per cent of control [28]: 3.3%

- kinase still bound, per cent of control [41]: 6.6%
- kinase still bound, per cent of control [42]: 24%
- kinase still bound, per cent of control [43]: 1.4%
- kinase still bound, per cent of control [44]: 4.5%
- kinase still bound, per cent of control [45]: 25%
- kinase still bound, per cent of control [46]: 1.2%
- kinase still bound, per cent of control [47]: 33%
- kinase still bound, per cent of control [29]: 31%
- kinase still bound, per cent of control [48]: 7.6%
- kinase still bound, per cent of control [49]: 9%
- kinase still bound, per cent of control [50]: 20%
- kinase still bound, per cent of control [51]: 24%
- kinase still bound, per cent of control [52]: 29%
- kinase still bound, per cent of control [53]: 14%
- kinase still bound, per cent of control [54]: 0.95%
- kinase still bound, per cent of control [55]: 4.6%
- kinase still bound, per cent of control [56]: 12%
- kinase still bound, per cent of control [57]: 16%
- kinase still bound, per cent of control [58]: 3.6%
- kinase still bound, per cent of control [59]: 5.4%
- kinase still bound, per cent of control [60]: 1.4%
- kinase still bound, per cent of control [61]: 19%
- kinase still bound, per cent of control [62]: 1.3%
Structure (SMILES): COc1cc(N2CCN(C)CC2)ccc1Nc1ncc2c(n1)N(C1CCCC1)C(C)CC(=O)N2C (centres undefined)

- kinase still bound, per cent of control [41]: 22%
- kinase still bound, per cent of control [63]: 28%
- kinase still bound, per cent of control [64]: 33%
- kinase still bound, per cent of control [65]: 19%
- kinase still bound, per cent of control [66]: 23%
- kinase still bound, per cent of control [67]: 22%
- kinase still bound, per cent of control [68]: 28%
- kinase still bound, per cent of control [69]: 31%
- kinase still bound, per cent of control [46]: 6.4%
- kinase still bound, per cent of control [48]: 31%
- kinase still bound, per cent of control [49]: 1.9%
- kinase still bound, per cent of control [50]: 6.5%
- kinase still bound, per cent of control [54]: 34%
- kinase still bound, per cent of control [55]: 17%
- kinase still bound, per cent of control [70]: 32%
- kinase still bound, per cent of control [56]: 32%
- kinase still bound, per cent of control [58]: 22%
- kinase still bound, per cent of control [59]: 13%
- kinase still bound, per cent of control [60]: 5.2%
Structure (SMILES): COc1cc(C(=O)NC2CCN(C)CC2)ccc1Nc1ncc2c(n1)N(CCc1ccccc1)CCC(=O)N2C

Source: the kinase profiling compilation of Christmann-Franck et al. (2016)
